In patent publication US11510886B2, “Metformin amino acid compounds and methods of using the same” (Laboratorios Silancs S.A. DE C.V., priority 2016, dated 2022):
Read-outs that look alike come from different tables or passages of the source.

Tests used:
[1] = rat, in vivo, po, 250 mg/kg
[2] = terms of European Pharmacopeia 7.0 section 5.11
blood glucose level = assay: Effect of metformin compounds on the glucokinetic profile after oral glucose overload; format: in vivo, Rat; settings: rat, 750 mg/kg referred to metformin base, mean ± SD; for Blood glucose level, 0.25 h post-glucose overload / Blood glucose level, 1 h post-glucose overload / Blood glucose level, 4 h post-glucose overload / Blood glucose level, pre-glucose overload: *p<0.05 vs vehicle; for Blood glucose level, 3 h post-glucose overload: *p<0.05, **p<0.01 vs vehicle
[3] = for Body weight (g) On administration day / Body weight (g) On distribution day / Body weight (g) On first administration day: Mean ± SD; for Body weight (g) On distribution day: before dosing
[4] = STZ-diabetic male rats, mean ± SD; for Absolute body weight, Day −3 (before STZ administration): baseline before STZ and before first TI/RI administration; for Absolute body weight, Day −1 / Absolute body weight, Day −2 (distribution of groups): before first TI/RI administration
[5] = test system: rat model of streptozotocin-induced diabetes; assay: Blood glucose levels in rat model of streptozotocin-induced diabetes, 14 days oral; settings: mean ± SD; for Blood glucose levels before TI/RI administration, Day −1: STZ-diabetic rats, before first TI/RI administration, n.d. = all values beyond ULOD of glucometer (600 mg/dl), § n=1, ¢ n=2; for Blood glucose levels before TI/RI administration, Day −3 (before STZ administration): rats, baseline before STZ and before first TI/RI administration
[6] = Groups L-U, 750 mg/kg, first column of this head
[7] = Groups L-U, 750 mg/kg, second column of this head

For metformin leucinate, the “AUC(0-24)” value [1] was 133.32 µg·h/mL, the “Cmax” value [1] was 15430 ng/mL and the “Metformin base concentration in plasma, 0.5 h post-administration” value [1] was 10.21 ± 1.77 µg/mL. The “Metformin base concentration in plasma, 1 h post-administration” value [1] was 15.43 ± 0.81 µg/mL, the “Metformin base concentration in plasma, 2 h post-administration” value [1] was 12.30 ± 2.41 µg/mL and the “Metformin base concentration in plasma, 4 h post-administration” value [1] was 12.57 ± 4.13 µg/mL. For the same substance, the “Metformin base concentration in plasma, 8 h post-administration” value [1] was 5.88 ± 0.80 µg/mL, the “Metformin base concentration in plasma, 24 h post-administration” value [1] was 0.21 ± 0.08 µg/mL and the “Physical form (hygroscopicity)” value [2] was “Deliquescent”. The “Blood glucose level, 0.25 h post-glucose overload” value (blood glucose level) was 87.75 ± 31.40 mg/dL, the “Blood glucose level, 0.5 h post-glucose overload” value (blood glucose level) was 90.75 ± 28.16 mg/dL and the “Blood glucose level, 1 h post-glucose overload” value (blood glucose level) was 99.50 ± 27.50 mg/dL. For the same substance, the “Blood glucose level, 2 h post-glucose overload” value (blood glucose level) was 99.00 ± 2.45 mg/dL, the “Blood glucose level, 3 h post-glucose overload” value (blood glucose level) was 91.75 ± 6.99 mg/dL and the “Blood glucose level, 4 h post-glucose overload” value (blood glucose level) was 89.75 ± 3.69 mg/dL. For the same substance, the “Blood glucose level, 6 h post-glucose overload” value (blood glucose level) was 85.25 ± 2.22 mg/dL, the “Blood glucose level, pre-glucose overload” value (blood glucose level) was 72.25 ± 9.29 mg/dL and the “Body weight (g) On administration day” value ([3]; Groups B-K, 250 mg/kg) was 195.70 ± 9.85 g. For the same substance, the “Body weight (g) On distribution day” value ([3]; Groups B-K, 250 mg/kg) was 187.38 ± 6.74 g, the “Body weight (g) On distribution day” value ([3]; Groups L-U, 750 mg/kg) was 185.53 ± 12.04 g and the “Body weight (g) On first administration day” value [3, 6] was 199.25 ± 9.43 g. For the same substance, the “Body weight (g) On first administration day” value [3, 7] was 193.53 ± 11.92 g, the “Absolute body weight, Day −3 (before STZ administration)” value [4] was 234.57 ± 1.87 g and the “Absolute body weight, Day −1” value [4] was 207.93 ± 0.99 g. The “Absolute body weight, Day −2 (distribution of groups)” value [4] was 221.90 ± 6.16 g, the “Blood glucose levels before TI/RI administration, Day −1” value [5] was 563.00 ± 36.39 mg/dL and the “Blood glucose levels before TI/RI administration, Day −3 (before STZ administration)” value [5] was 118.33 ± 10.02 mg/dL.
For metformin threoninate, the “AUC(0-24)” value [1] was 107.62 µg·h/mL, the “Cmax” value [1] was 14300 ng/mL and the “Metformin base concentration in plasma, 0.5 h post-administration” value [1] was 8.81 ± 2.00 µg/mL. For the same substance, the “Metformin base concentration in plasma, 1 h post-administration” value [1] was 14.30 ± 1.70 µg/mL, the “Metformin base concentration in plasma, 2 h post-administration” value [1] was 11.53 ± 2.61 µg/mL and the “Metformin base concentration in plasma, 4 h post-administration” value [1] was 11.43 ± 1.66 µg/mL. For the same substance, the “Metformin base concentration in plasma, 8 h post-administration” value [1] was 3.91 ± 0.33 µg/mL, the “Metformin base concentration in plasma, 24 h post-administration” value [1] was 0.23 ± 0.08 µg/mL and the “Blood glucose level, 0.25 h post-glucose overload” value (blood glucose level) was 110.33 ± 16.92 mg/dL. The “Blood glucose level, 0.5 h post-glucose overload” value (blood glucose level) was 102.67 ± 8.02 mg/dL, the “Blood glucose level, 1 h post-glucose overload” value (blood glucose level) was 101.67 ± 11.85 mg/dL and the “Blood glucose level, 2 h post-glucose overload” value (blood glucose level) was 93.67 ± 10.69 mg/dL. For the same substance, the “Blood glucose level, 3 h post-glucose overload” value (blood glucose level) was 91.67 ± 6.03 mg/dL, the “Blood glucose level, 4 h post-glucose overload” value (blood glucose level) was 87.67 ± 2.08 mg/dL and the “Blood glucose level, 6 h post-glucose overload” value (blood glucose level) was 89.33 ± 3.06 mg/dL. The “Blood glucose level, pre-glucose overload” value (blood glucose level) was 90.33 ± 12.34 mg/dL, the “Body weight (g) On administration day” value ([3]; Groups B-K, 250 mg/kg) was 193.13 ± 9.66 g and the “Body weight (g) On distribution day” value ([3]; Groups B-K, 250 mg/kg) was 186.22 ± 10.13 g. The “Body weight (g) On distribution day” value ([3]; Groups L-U, 750 mg/kg) was 188.55 ± 6.35 g, the “Body weight (g) On first administration day” value [3, 6] was 202.15 ± 5.48 g and the “Body weight (g) On first administration day” value [3, 7] was 194.20 ± 4.58 g. The “mortality and clinical signs” value ([3]; glucokinetic groups, 750 mg/kg for five days) was “died during the study just after the fifth test item administration”, the “Absolute body weight, Day −3 (before STZ administration)” value [4] was 231.13 ± 10.20 g and the “Absolute body weight, Day −1” value [4] was 207.33 ± 8.52 g. The “Absolute body weight, Day −2 (distribution of groups)” value [4] was 216.43 ± 8.74 g and the “Blood glucose levels before TI/RI administration, Day −3 (before STZ administration)” value [5] was 117.33 ± 14.05 mg/dL.
In the case of dimetformin aspartate, the “AUC(0-24)” value [1] is reported as 122.96 µg·h/mL, the “Cmax” value [1] is reported as 15500 ng/mL and the “Metformin base concentration in plasma, 0.5 h post-administration” value [1] is reported as 12.43 ± 2.05 µg/mL. For the same substance, the “Metformin base concentration in plasma, 1 h post-administration” value [1] was 15.50 ± 4.49 µg/mL, the “Metformin base concentration in plasma, 2 h post-administration” value [1] was 13.47 ± 3.13 µg/mL and the “Metformin base concentration in plasma, 4 h post-administration” value [1] was 6.05 ± 0.98 µg/mL. The “Metformin base concentration in plasma, 8 h post-administration” value [1] was 6.50 ± 1.57 µg/mL, the “Metformin base concentration in plasma, 24 h post-administration” value [1] was 0.22 ± 0.11 µg/mL and the “Blood glucose level, 0.25 h post-glucose overload” value (blood glucose level) was 96.00 ± 17.15 mg/dL. The “Blood glucose level, 0.5 h post-glucose overload” value (blood glucose level) was 98.50 ± 13.70 mg/dL, the “Blood glucose level, 1 h post-glucose overload” value (blood glucose level) was 103.75 ± 9.29 mg/dL and the “Blood glucose level, 2 h post-glucose overload” value (blood glucose level) was 95.25 ± 8.77 mg/dL. The “Blood glucose level, 3 h post-glucose overload” value (blood glucose level) was 92.00 ± 6.16 mg/dL, the “Blood glucose level, 4 h post-glucose overload” value (blood glucose level) was 92.75 ± 4.11 mg/dL and the “Blood glucose level, 6 h post-glucose overload” value (blood glucose level) was 89.75 ± 5.50 mg/dL. For the same substance, the “Blood glucose level, pre-glucose overload” value (blood glucose level) was 83.25 ± 14.89 mg/dL, the “Body weight (g) On administration day” value ([3]; Groups B-K, 250 mg/kg) was 188.42 ± 5.42 g and the “Body weight (g) On distribution day” value ([3]; Groups B-K, 250 mg/kg) was 186.02 ± 5.04 g. For the same substance, the “Body weight (g) On distribution day” value ([3]; Groups L-U, 750 mg/kg) was 192.05 ± 6.89 g, the “Body weight (g) On first administration day” value [3, 6] was 207.73 ± 9.57 g and the “Body weight (g) On first administration day” value [3, 7] was 197.30 ± 10.15 g. For the same substance, the “Absolute body weight, Day −3 (before STZ administration)” value [4] was 228.17 ± 10.17 g, the “Absolute body weight, Day −1” value [4] was 205.23 ± 6.83 g and the “Absolute body weight, Day −2 (distribution of groups)” value [4] was 219.53 ± 13.36 g. The “Blood glucose levels before TI/RI administration, Day −1” value [5] was 572.00^§ ± n.d.^§ mg/dL and the “Blood glucose levels before TI/RI administration, Day −3 (before STZ administration)” value [5] was 120.00 ± 2.65 mg/dL.
With diphenformin aspartate the “Blood glucose levels before TI/RI administration, Day −3 (before STZ administration)” value [5] was 115.33 ± 10.02 mg/dL.
